Laboratory results reported in the NIST ThermoML archive (doi:10.1016/j.jct.2018.07.020).
Where “and” joins values, the source holds several entries; their conditions need not be identical. Identical values can stand only once. ± gives the expanded uncertainty stated by the source.

Legend:
[1] = for vapor or sublimation pressure: Transpiration method; for Normal melting temperature: DTA
[2] = Molar enthalpy of transition or fusion; conditions: Crystal; DSC
[3] = Boiling temperature at pressure P; conditions: 0.6 kPa; Liquid; Distillation

Cc1cc(C)n(C)n1 [1,3,5-trimethylpyrazole]
vapor or sublimation pressure ([1]; 282 K, Crystal): 0.0479 ± 0.0031 kPa | vapor or sublimation pressure ([1]; 284 K, Crystal): 0.0583 ± 0.0039 kPa | vapor or sublimation pressure ([1]; 287 K, Crystal): 0.0816 ± 0.0054 kPa | vapor or sublimation pressure ([1]; 288.7 K, Crystal): 0.0998 ± 0.0065 kPa | vapor or sublimation pressure ([1]; 291.7 K, Crystal): 0.1348 ± 0.0087 kPa | vapor or sublimation pressure ([1]; 293.8 K, Crystal): 0.1707 ± 0.011 kPa | vapor or sublimation pressure ([1]; 296.7 K, Crystal): 0.2266 ± 0.015 kPa | vapor or sublimation pressure ([1]; 298.7 K, Crystal): 0.2751 ± 0.018 kPa and 0.2814 ± 0.018 kPa | vapor or sublimation pressure ([1]; 301.7 K, Crystal): 0.376 ± 0.024 kPa | vapor or sublimation pressure ([1]; 301.9 K, Crystal): 0.3776 ± 0.024 kPa | vapor or sublimation pressure ([1]; 303 K, Crystal): 0.4153 ± 0.026 kPa | vapor or sublimation pressure ([1]; 303.9 K, Crystal): 0.4496 ± 0.029 kPa | vapor or sublimation pressure ([1]; 306.8 K, Crystal): 0.5927 ± 0.038 kPa | vapor or sublimation pressure ([1]; 315.6 K, Liquid): 0.934 ± 0.058 kPa | vapor or sublimation pressure ([1]; 320.8 K, Liquid): 1.297 ± 0.081 kPa | vapor or sublimation pressure ([1]; 325.7 K, Liquid): 1.793 ± 0.11 kPa | vapor or sublimation pressure ([1]; 326.4 K, Liquid): 1.878 ± 0.12 kPa | vapor or sublimation pressure ([1]; 330.5 K, Liquid): 2.376 ± 0.15 kPa | vapor or sublimation pressure ([1]; 331.4 K, Liquid): 2.585 ± 0.16 kPa | vapor or sublimation pressure ([1]; 334.1 K, Liquid): 2.995 ± 0.19 kPa | vapor or sublimation pressure ([1]; 336 K, Liquid): 3.202 ± 0.23 kPa | vapor or sublimation pressure ([1]; 336.4 K, Liquid): 3.436 ± 0.24 kPa | vapor or sublimation pressure ([1]; 338.9 K, Liquid): 3.803 ± 0.24 kPa | vapor or sublimation pressure ([1]; 341.4 K, Liquid): 4.545 ± 0.28 kPa | vapor or sublimation pressure ([1]; 343.4 K, Liquid): 4.993 ± 0.31 kPa | vapor or sublimation pressure ([1]; 346.4 K, Liquid): 5.866 ± 0.36 kPa | Normal melting temperature ([1]; Crystal): 39.4 ± 1.1 °C | Molar enthalpy of transition or fusion [2]: 4.21 ± 0.215 kcal/mol

Cc1cc(C)[nH]n1 [3,5-dimethylpyrazole]
vapor or sublimation pressure ([1]; 323.3 K, Crystal): 0.0136 ± 0.001 kPa | vapor or sublimation pressure ([1]; 325.9 K, Crystal): 0.0179 ± 0.0013 kPa | vapor or sublimation pressure ([1]; 326.3 K, Crystal): 0.019 ± 0.0013 kPa | vapor or sublimation pressure ([1]; 328.3 K, Crystal): 0.0224 ± 0.0015 kPa | vapor or sublimation pressure ([1]; 330.3 K, Crystal): 0.028 ± 0.0018 kPa | vapor or sublimation pressure ([1]; 333.3 K, Crystal): 0.0361 ± 0.0023 kPa | vapor or sublimation pressure ([1]; 333.5 K, Crystal): 0.0368 ± 0.0023 kPa | vapor or sublimation pressure ([1]; 336.3 K, Crystal): 0.0473 ± 0.003 kPa | vapor or sublimation pressure ([1]; 338.2 K, Crystal): 0.0538 ± 0.0036 kPa | vapor or sublimation pressure ([1]; 343.3 K, Crystal): 0.0846 ± 0.0053 kPa | vapor or sublimation pressure ([1]; 345.7 K, Crystal): 0.1033 ± 0.0066 kPa | vapor or sublimation pressure ([1]; 348.3 K, Crystal): 0.1257 ± 0.0081 kPa | vapor or sublimation pressure ([1]; 350.7 K, Crystal): 0.1591 ± 0.01 kPa | vapor or sublimation pressure ([1]; 350.8 K, Crystal): 0.1585 ± 0.01 kPa | vapor or sublimation pressure ([1]; 353.2 K, Crystal): 0.1955 ± 0.012 kPa | vapor or sublimation pressure ([1]; 354.3 K, Crystal): 0.2107 ± 0.013 kPa | vapor or sublimation pressure ([1]; 356.4 K, Crystal): 0.2524 ± 0.016 kPa | Normal melting temperature ([1]; Crystal): 109.1 ± 1.1 °C | Molar enthalpy of transition or fusion [2]: 3.85 ± 0.12 kcal/mol

c1cn[nH]c1 [1H-pyrazole]
vapor or sublimation pressure ([1]; 308.4 K, Crystal): 0.0499 ± 0.0033 kPa | vapor or sublimation pressure ([1]; 310.8 K, Crystal): 0.0628 ± 0.0041 kPa | vapor or sublimation pressure ([1]; 313.4 K, Crystal): 0.08 ± 0.0051 kPa | vapor or sublimation pressure ([1]; 315.8 K, Crystal): 0.1 ± 0.0064 kPa | vapor or sublimation pressure ([1]; 318.2 K, Crystal): 0.1258 ± 0.0082 kPa | vapor or sublimation pressure ([1]; 323.3 K, Crystal): 0.189 ± 0.012 kPa | vapor or sublimation pressure ([1]; 328.3 K, Crystal): 0.287 ± 0.018 kPa | vapor or sublimation pressure ([1]; 330.9 K, Crystal): 0.3495 ± 0.022 kPa | vapor or sublimation pressure ([1]; 333.3 K, Crystal): 0.4255 ± 0.027 kPa | vapor or sublimation pressure ([1]; 335.8 K, Crystal): 0.5187 ± 0.033 kPa | vapor or sublimation pressure ([1]; 338.3 K, Crystal): 0.6278 ± 0.039 kPa

c1ccc(Cn2cccn2)cc1 [1-benzylpyrazole]
vapor or sublimation pressure ([1]; 298.2 K, Liquid): 0.00147 ± 0.00011 kPa | vapor or sublimation pressure ([1]; 310.2 K, Liquid): 0.0043 ± 0.00027 kPa | vapor or sublimation pressure ([1]; 314.2 K, Liquid): 0.00615 ± 0.00044 kPa | vapor or sublimation pressure ([1]; 318.2 K, Liquid): 0.00882 ± 0.00061 kPa | vapor or sublimation pressure ([1]; 322.2 K, Liquid): 0.0119 ± 0.0008 kPa | vapor or sublimation pressure ([1]; 326.2 K, Liquid): 0.0166 ± 0.001 kPa and 0.0168 ± 0.001 kPa | vapor or sublimation pressure ([1]; 330.2 K, Liquid): 0.0225 ± 0.0015 kPa | vapor or sublimation pressure ([1]; 334.2 K, Liquid): 0.0311 ± 0.002 kPa | vapor or sublimation pressure ([1]; 338.2 K, Liquid): 0.0421 ± 0.0027 kPa | vapor or sublimation pressure ([1]; 342.2 K, Liquid): 0.0559 ± 0.0035 kPa | vapor or sublimation pressure ([1]; 346.2 K, Liquid): 0.0713 ± 0.0045 kPa | vapor or sublimation pressure ([1]; 350.2 K, Liquid): 0.0969 ± 0.006 kPa | vapor or sublimation pressure ([1]; 354.2 K, Liquid): 0.1228 ± 0.0077 kPa | vapor or sublimation pressure ([1]; 358.2 K, Liquid): 0.159 ± 0.0099 kPa | Boiling temperature at pressure P [3]: 109 ± 5 °C

c1ccc2[nH]ncc2c1 [1,2-diazaindene]
vapor or sublimation pressure ([1]; 323.3 K, Crystal): 0.00069 ± 5e-05 kPa | vapor or sublimation pressure ([1]; 326.3 K, Crystal): 0.00098 ± 7e-05 kPa | vapor or sublimation pressure ([1]; 330.3 K, Crystal): 0.00152 ± 0.0001 kPa | vapor or sublimation pressure ([1]; 331.3 K, Crystal): 0.00161 ± 0.00012 kPa | vapor or sublimation pressure ([1]; 336.3 K, Crystal): 0.00272 ± 0.00018 kPa | vapor or sublimation pressure ([1]; 338.3 K, Crystal): 0.00329 ± 0.00023 kPa | vapor or sublimation pressure ([1]; 341.3 K, Crystal): 0.00443 ± 0.0003 kPa | vapor or sublimation pressure ([1]; 343.3 K, Crystal): 0.00515 ± 0.00037 kPa and 0.00524 ± 0.00039 kPa | vapor or sublimation pressure ([1]; 345.2 K, Crystal): 0.00661 ± 0.00047 kPa | vapor or sublimation pressure ([1]; 346.3 K, Crystal): 0.00723 ± 0.0005 kPa | vapor or sublimation pressure ([1]; 348.3 K, Crystal): 0.00826 ± 0.00057 kPa | vapor or sublimation pressure ([1]; 350.3 K, Crystal): 0.01023 ± 0.0007 kPa | vapor or sublimation pressure ([1]; 353.2 K, Crystal): 0.01343 ± 0.0009 kPa | vapor or sublimation pressure ([1]; 356.2 K, Crystal): 0.01763 ± 0.0012 kPa | vapor or sublimation pressure ([1]; 358.2 K, Crystal): 0.0211 ± 0.0014 kPa | vapor or sublimation pressure ([1]; 361.2 K, Crystal): 0.02725 ± 0.0018 kPa
